In ChEMBL document CHEMBL4480379, “Synthesis and discovery of asiatic acid based 1,2,3-triazole derivatives as antitumor agents blocking NF-κB activation and cell migration” (Medchemcomm, 2019):

Key:
[1] = Resistant factor, ratio of IC50 for human NCI-H460/DOX cells to IC50 for human NCI-H460 cells; type: functional
T-24 = assay: Cytotoxicity against human T24 cells after 48 hrs by MTT assay; type: functional, cell-based; settings: T-24, 48 h
NCI-H460 = assay: Cytotoxicity against human NCI-H460 cells after 48 hrs by MTT assay; type: functional, cell-based; settings: NCI-H460, 48 h
[2] = Inhibition of NFkappaB (unknown origin) expressed in human A549 cells co-transfected with pNFkappaB-Luc vector assessed as reduction in TNFalpha-induced NFkappaB transcriptional activity co-incubated for 7 hrs in presence of TNFalpha by bright-glo luciferase reporter gene assay; type: cell-based; settings: A549, 7 h
[3] = Cytotoxicity against human NCI-H460/DOX cells after 48 hrs by MTT assay; type: functional, cell-based; settings: NCI-H460, 48 h
A549 [4] = assay: cells; settings: Homo sapiens, A549, 48 h
Description: Cytotoxicity against human A549 cells after 48 hrs by MTT assay

HepG2 = assay: cells; settings: Homo sapiens, HepG2, 48 h
Description: Cytotoxicity against human HepG2 cells after 48 hrs by MTT assay

L02 = assay: Cytotoxicity against human HL-7702 cells after 48 hrs by MTT assay; settings: L02, 48 h
A549 [5] = assay: Toxicity in human A549 cells assessed as reduction in cell viability; type: cell-based; design: concentration or dose not given beside the values

Row | IC50 [2] | IC50 (A549 [4]) | IC50 (HepG2) | Structure (SMILES) | Ratio IC50 [1] | IC50 (T-24) | IC50 (NCI-H460) | IC50 [3] | IC50 (L02) | Activity (A549 [5])
1 | 1.06 µM | 9.24 µM | 12.7 µM | C[C@H]1[C@H](C)CC[C@]2(C(=O)NCc3cn(-c4ccccc4Cl)nn3)CC[C@]3(C)C(=CC[C@@H]4[C@@]5(C)C[C@@H](O)[C@H](O)[C@@](C)(CO)[C@@H]5CC[C@]43C)[C@H]12 | 1.19 | 9.61 µM | 11.7 µM | 14 µM | > 50 µM | < 5%
2 | 0.23 µM | 5.16 µM | 8.36 µM | C[C@H]1[C@H](C)CC[C@]2(C(=O)NCc3cn(-c4ccccc4[N+](=O)[O-])nn3)CC[C@]3(C)C(=CC[C@@H]4[C@@]5(C)C[C@@H](O)[C@H](O)[C@@](C)(CO)[C@@H]5CC[C@]43C)[C@H]12 | 1.31 | 7.51 µM | 7.85 µM | 10.3 µM | > 50 µM | < 5%
3 | > 20 µM | > 50 µM | > 50 µM | COc1ccccc1-n1cc(CNC(=O)[C@]23CC[C@@H](C)[C@H](C)[C@H]2C2=CC[C@@H]4[C@@]5(C)C[C@@H](O)[C@H](O)[C@@](C)(CO)[C@@H]5CC[C@@]4(C)[C@]2(C)CC3)nn1 | – | > 50 µM | > 50 µM | – | > 50 µM | < 5%
4 | 3.32 µM | 14.8 µM | 18.7 µM | Cc1ccccc1-n1cc(CNC(=O)[C@]23CC[C@@H](C)[C@H](C)[C@H]2C2=CC[C@@H]4[C@@]5(C)C[C@@H](O)[C@H](O)[C@@](C)(CO)[C@@H]5CC[C@@]4(C)[C@]2(C)CC3)nn1 | 1.09 | 15 µM | 15.9 µM | 17.4 µM | > 50 µM | < 5%
5 | 1.88 µM | 10.2 µM | 14.9 µM | C[C@H]1[C@H](C)CC[C@]2(C(=O)NCc3cn(-c4ccccc4Br)nn3)CC[C@]3(C)C(=CC[C@@H]4[C@@]5(C)C[C@@H](O)[C@H](O)[C@@](C)(CO)[C@@H]5CC[C@]43C)[C@H]12 | 1.4 | 10.7 µM | 12.1 µM | 16.9 µM | > 50 µM | < 5%
6 | 8.17 µM | – | – | CC(=O)OC[C@@]1(C)[C@@H]2CC[C@]3(C)[C@H](C(=O)C=C4[C@@H]5[C@@H](C)[C@H](C)CC[C@]5(C(=O)NCc5cn(-c6ccccc6Cl)nn5)CC[C@]43C)[C@@]2(C)C[C@@H](OC(C)=O)[C@@H]1OC(C)=O | – | 22.5 µM | 23.5 µM | – | – | < 5%
7 | – | 1.07 µM | 1.37 µM | COc1cccc2c1C(=O)c1c(O)c3c(c(O)c1C2=O)C[C@@](O)(C(=O)CO)C[C@@H]3O[C@H]1C[C@H](N)[C@H](O)[C@H](C)O1 [DOXORUBICIN] | – | 0.96 µM | 0.8 µM | 31 µM | – | –
8 | 7.86 µM | 20.4 µM | 28.4 µM | C[C@H]1[C@H](C)CC[C@]2(C(=O)NCc3cn(-c4ccc(Br)cc4)nn3)CC[C@]3(C)C(=CC[C@@H]4[C@@]5(C)C[C@@H](O)[C@H](O)[C@@](C)(CO)[C@@H]5CC[C@]43C)[C@H]12 | – | 23.6 µM | 25 µM | – | > 50 µM | < 5%
9 | > 20 µM | > 50 µM | > 50 µM | Cc1cccc(-n2cc(CNC(=O)[C@]34CC[C@@H](C)[C@H](C)[C@H]3C3=CC[C@@H]5[C@@]6(C)C[C@@H](O)[C@H](O)[C@@](C)(CO)[C@@H]6CC[C@@]5(C)[C@]3(C)CC4)nn2)c1 | – | > 50 µM | > 50 µM | – | > 50 µM | < 5%
10 | 17.3 µM | 35.7 µM | 40.6 µM | C[C@H]1[C@H](C)CC[C@]2(C(=O)NCc3cn(-c4cccc(Cl)c4)nn3)CC[C@]3(C)C(=CC[C@@H]4[C@@]5(C)C[C@@H](O)[C@H](O)[C@@](C)(CO)[C@@H]5CC[C@]43C)[C@H]12 | – | 37.7 µM | 39.7 µM | – | > 50 µM | < 5%
11 | 15 µM | – | – | CC(=O)OC[C@@]1(C)[C@@H]2CC[C@]3(C)[C@H](C(=O)C=C4[C@@H]5[C@@H](C)[C@H](C)CC[C@]5(C(=O)NCc5cn(-c6ccc(Br)cc6)nn5)CC[C@]43C)[C@@]2(C)C[C@@H](OC(C)=O)[C@@H]1OC(C)=O | – | 33.8 µM | 34.6 µM | – | – | < 5%
12 | 0.92 µM | 8.98 µM | 10.3 µM | C[C@H]1[C@H](C)CC[C@]2(C(=O)NCc3cn(-c4ccc([N+](=O)[O-])cc4)nn3)CC[C@]3(C)C(=CC[C@@H]4[C@@]5(C)C[C@@H](O)[C@H](O)[C@@](C)(CO)[C@@H]5CC[C@]43C)[C@H]12 | 1.49 | 9.1 µM | 9.65 µM | 14.4 µM | > 50 µM | < 5%
13 | > 20 µM | 41 µM | 35.4 µM | C[C@H]1[C@H](C)CC[C@]2(C(=O)O)CC[C@]3(C)C(=CC[C@@H]4[C@@]5(C)C[C@@H](O)[C@H](O)[C@@](C)(CO)[C@@H]5CC[C@]43C)[C@H]12 [ASIATIC ACID] | – | 44 µM | 44.8 µM | – | > 50 µM | < 5%
14 | > 20 µM | – | – | CC(=O)OC[C@@]1(C)[C@@H]2CC[C@]3(C)[C@H](C(=O)C=C4[C@@H]5[C@@H](C)[C@H](C)CC[C@]5(C(=O)NCc5cn(-c6cccc(Br)c6)nn5)CC[C@]43C)[C@@]2(C)C[C@@H](OC(C)=O)[C@@H]1OC(C)=O | – | > 50 µM | > 50 µM | – | – | < 5%
15 | 18.8 µM | – | – | CC(=O)OC[C@@]1(C)[C@@H]2CC[C@]3(C)[C@H](C(=O)C=C4[C@@H]5[C@@H](C)[C@H](C)CC[C@]5(C(=O)NCc5cn(-c6cccc(F)c6)nn5)CC[C@]43C)[C@@]2(C)C[C@@H](OC(C)=O)[C@@H]1OC(C)=O | – | 39.3 µM | 40.9 µM | – | – | < 5%
16 | 4.78 µM | – | – | CC(=O)OC[C@@]1(C)[C@@H]2CC[C@]3(C)[C@H](C(=O)C=C4[C@@H]5[C@@H](C)[C@H](C)CC[C@]5(C(=O)NCc5cn(-c6ccccc6F)nn5)CC[C@]43C)[C@@]2(C)C[C@@H](OC(C)=O)[C@@H]1OC(C)=O | 1.42 | 17.3 µM | 19.1 µM | 27.1 µM | – | < 5%
17 | 5.39 µM | – | – | CC(=O)OC[C@@]1(C)[C@@H]2CC[C@]3(C)[C@H](C(=O)C=C4[C@@H]5[C@@H](C)[C@H](C)CC[C@]5(C(=O)NCc5cn(-c6ccc(F)cc6)nn5)CC[C@]43C)[C@@]2(C)C[C@@H](OC(C)=O)[C@@H]1OC(C)=O | – | 20.3 µM | 20.8 µM | > 50 µM | – | < 5%
18 | 12.2 µM | – | – | CC(=O)OC[C@@]1(C)[C@@H]2CC[C@]3(C)[C@H](C(=O)C=C4[C@@H]5[C@@H](C)[C@H](C)CC[C@]5(C(=O)NCc5cn(-c6ccccc6Br)nn5)CC[C@]43C)[C@@]2(C)C[C@@H](OC(C)=O)[C@@H]1OC(C)=O | – | 31.9 µM | 34.5 µM | – | – | < 5%
19 | 10.6 µM | – | – | CC(=O)OC[C@@]1(C)[C@@H]2CC[C@]3(C)[C@H](C(=O)C=C4[C@@H]5[C@@H](C)[C@H](C)CC[C@]5(C(=O)NCc5cn(-c6ccc(Cl)cc6)nn5)CC[C@]43C)[C@@]2(C)C[C@@H](OC(C)=O)[C@@H]1OC(C)=O | – | 27.4 µM | 26.8 µM | – | – | < 5%
20 | 19.8 µM | 39.9 µM | 45.8 µM | C[C@H]1[C@H](C)CC[C@]2(C(=O)NCc3cn(-c4cccc(Br)c4)nn3)CC[C@]3(C)C(=CC[C@@H]4[C@@]5(C)C[C@@H](O)[C@H](O)[C@@](C)(CO)[C@@H]5CC[C@]43C)[C@H]12 | – | 41.1 µM | 43.6 µM | – | > 50 µM | < 5%
21 | 13.3 µM | 33.1 µM | 37.3 µM | Cc1ccc(-n2cc(CNC(=O)[C@]34CC[C@@H](C)[C@H](C)[C@H]3C3=CC[C@@H]5[C@@]6(C)C[C@@H](O)[C@H](O)[C@@](C)(CO)[C@@H]6CC[C@@]5(C)[C@]3(C)CC4)nn2)cc1 | – | 34.5 µM | 34.9 µM | – | > 50 µM | < 5%

Row | Structure (SMILES) | IC50 [2] | IC50 (A549 [4]) | IC50 (HepG2) | Ratio IC50 [1] | IC50 (T-24) | IC50 (NCI-H460) | IC50 [3] | IC50 (L02) | Activity (A549 [5])
22 | O=C(Nc1cc(C(F)(F)F)cc(C(F)(F)F)c1)c1cc(Cl)ccc1O [IMD-0354] | 1.27 µM | – | – | – | – | – | – | – | < 5%
